Assay results taken from publication PMC8347172, “Optimization and Validation of an In Vitro Standardized Glycogen Phosphorylase Activity Assay” (Molecules, 2021).
One block for each molecule: values may come before it.

What was measured:
[1] = molecular target: T1, rabbit muscle glycogen phosphorylase a (GPa) (Oryctolagus cuniculus, UniProt P00489); assay: colorimetric phosphate release assay (BIOMOL Green), glycogen synthesis direction, […] °C, no glucose; type: biochemical
T1 construct: gene PYGM
T1 sequence (P00489 2-843): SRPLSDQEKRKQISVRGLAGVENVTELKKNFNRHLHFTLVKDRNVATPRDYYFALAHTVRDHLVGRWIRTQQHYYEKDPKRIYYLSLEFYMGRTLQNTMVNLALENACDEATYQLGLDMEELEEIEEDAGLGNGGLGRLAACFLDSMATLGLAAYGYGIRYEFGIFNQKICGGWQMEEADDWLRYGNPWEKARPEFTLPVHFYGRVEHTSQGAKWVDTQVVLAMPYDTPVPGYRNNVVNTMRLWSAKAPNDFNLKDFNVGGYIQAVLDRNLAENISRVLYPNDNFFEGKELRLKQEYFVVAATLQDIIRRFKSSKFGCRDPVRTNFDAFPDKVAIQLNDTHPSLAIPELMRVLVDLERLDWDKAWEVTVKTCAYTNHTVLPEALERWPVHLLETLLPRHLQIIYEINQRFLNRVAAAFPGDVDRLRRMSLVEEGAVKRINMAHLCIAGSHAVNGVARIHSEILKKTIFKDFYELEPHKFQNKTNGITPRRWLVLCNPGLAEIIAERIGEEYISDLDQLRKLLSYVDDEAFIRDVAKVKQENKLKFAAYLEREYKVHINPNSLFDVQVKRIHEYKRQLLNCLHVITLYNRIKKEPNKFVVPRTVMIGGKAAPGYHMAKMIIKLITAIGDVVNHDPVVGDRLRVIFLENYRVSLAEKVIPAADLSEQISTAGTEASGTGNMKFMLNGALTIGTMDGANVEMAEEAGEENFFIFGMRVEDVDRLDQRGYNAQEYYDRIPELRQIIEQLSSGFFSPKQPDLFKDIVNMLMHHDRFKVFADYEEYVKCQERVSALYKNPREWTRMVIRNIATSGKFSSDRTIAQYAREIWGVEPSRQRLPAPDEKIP

[2] = molecular target: T1, rabbit muscle glycogen phosphorylase a (GPa); assay: colorimetric phosphate release assay (BIOMOL Green); percent inhibition at […], […] °C; type: biochemical
purified protein = substrate: O=P(O)(O)O[C@H]1O[C@H](CO)[C@@H](O)[C@H](O)[C@H]1O; assay: purified protein

- IC50 [1]: 580 ± 90 nM
Molecule: CN(C)C(=O)[C@H](O)[C@H](Cc1ccccc1)NC(=O)c1cc2cc(Cl)ccc2[nH]1 [CP-91149, 5-chloro-N-[(1S,2R)-3-(dimethylamino)-2-hydroxy-3-oxo-1-(phenylmethyl)propyl]-1H-indole-2-carboxamide]

- % inhibition at 100 μM [2]: 40.6 ± 4.5
Molecule: O=c1oc2c(O)c(O)cc3c(=O)oc4c(O)c(O)cc1c4c23 [ellagic acid]

B1: rabbit muscle glycogen phosphorylase a (GPa) (Oryctolagus cuniculus) (protein)
chain: T1 sequence (P00489 2-843)
- Km (purified protein): 150 ± 30 µM
